Reference: patent US11352350B2, “IRAK degraders and uses thereof” (Kymera Therapeutics, Inc., priority 2018, dated 2022)
Read-outs that look alike come from different tables or passages of the source.

Tests used:
OCI-LY10 = experiment: CTG Cell Viability Assay - OCI-LY10; type: cell-based, human; details: OCI-LY10, 4 days, read-out: CTG Cell Viability Assay - OCI-LY10: Average external-IC50
Outline: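 OCI-LY10 cells exposed to 9-dose, 1:3 dilutions from 10 μM top (0.2% DMSO) for 4 days at 37° C, 5% CO2. Viability by CellTiter-Glo luminescence; IC50 from three-parameter logistic fit.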

IRAK4 = IRAK4 (Homo sapiens (Human), UniProt Q9NWZ3); experiment: IRAK4 MSD degradation in OCI-LY10; type: cell-based
Chain of IRAK4 (Q9NWZ3 whole entry): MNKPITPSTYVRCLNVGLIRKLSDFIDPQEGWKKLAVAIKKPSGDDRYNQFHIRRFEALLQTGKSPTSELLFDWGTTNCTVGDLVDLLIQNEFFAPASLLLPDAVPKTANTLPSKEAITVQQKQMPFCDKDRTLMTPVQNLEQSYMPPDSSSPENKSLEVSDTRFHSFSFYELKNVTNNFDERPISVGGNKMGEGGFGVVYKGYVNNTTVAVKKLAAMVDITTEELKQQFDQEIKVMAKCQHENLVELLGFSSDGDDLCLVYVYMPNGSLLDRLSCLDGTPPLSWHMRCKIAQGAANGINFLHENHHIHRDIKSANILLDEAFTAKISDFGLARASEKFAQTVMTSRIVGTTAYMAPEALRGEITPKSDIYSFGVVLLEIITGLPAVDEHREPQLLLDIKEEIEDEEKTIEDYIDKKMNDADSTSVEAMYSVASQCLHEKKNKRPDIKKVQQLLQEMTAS
Outline: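 OCI-LY10 cells treated with 8-point 1:3 dilutions (top 1 to 10 μM final) for 4 to 24 h at 37° C. Lysate IRAK4 measured by MSD sandwich immunoassay (2H9 capture, Y279 detection, SULFO-TAG anti-rabbit). DC50 from three-parameter logistic fit.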

[1] = OCI-LY10, 4 hrs, MSD, read-out: IRAK4 MSD degradation in OCI-LY10 at 4 hrs: Average external-Abs DC50
[2] = OCI-LY10, 24 hrs, MSD, read-out: IRAK4 MSD degradation in OCI-LY10 at 24 hrs: Average external-Abs DC50
[3] = OCI-LY10, 4 hrs, read-out: IRAK4 MSD degradation in OCI-LY10 at 4 hrs: DC50
[4] = OCI-LY10, 24 hrs, read-out: IRAK4 MSD degradation in OCI-LY10 at 24 hrs: DC50

Row | Compound | IC50 (OCI-LY10; Homo sapiens, OCI-Ly10, 96 h) [nM] | DC50 (IRAK4; [1]) [nM] | DC50 (IRAK4; [2]) [nM] | DC50 (IRAK4; [3]) [nM] | DC50 (IRAK4; [4]) [nM] | IC50 (OCI-LY10) [nM]
1 | O=C1CCC(N2C(=O)c3cccc(NCCCOC[C@@H]4CN(Cc5ccc(-n6cc(NC(=O)c7coc(-c8ccnc(NCC9CC9)c8)n7)c(C(F)F)n6)cc5)CCO4)c3C2=O)C(=O)N1 (stereo partly drawn) [I-393] | 50 to 100 | 100 to 1000 | 10 to 100 | – | – | –
2 | Cc1c[nH]c2ncnc(N[C@H]3CC[C@H](N4CCN(C(=O)COCCOCCOCCOCCCc5ccc6c(c5)n(C)c(=O)n6C5CCC(=O)NC5=O)CC4)CC3)c12 (stereo partly drawn) [I-26] | > 1000 | > 1000 | > 1000 | – | – | –
3 | O=C1CCC(N2C(=O)c3cccc(NCC4CC5(CCN(Cc6ccc(-n7cc(NC(=O)c8cnn9ccc(N%10C[C@H]%11C[C@@H]%10CO%11)nc89)c(C(F)F)n7)cc6)CC5)C4)c3C2=O)C(=O)N1 (stereo partly drawn) [I-462] | < 50 | – | – | 100 to 1000 | > 1000 | –
4 | Cn1c(=O)n(C2CCC(=O)NC2=O)c2cccc(CCCOC3CCN([C@H]4CC[C@@H](Nc5ncnc6ccc(C#N)cc56)CC4)CC3)c21 (stereo partly drawn) [I-305, 4-[[4-[4-[3-[1-(2,6-dioxo-3-piperidyl)-3-methyl-2-oxo-benzimidazol-4-yl]propoxy]-1-piperidyl]cyclohexyl]amino]quinazoline-6-carbonitrile] | > 1000 | > 1000 | > 1000 | – | – | –
5 | CN(C[C@H]1CC[C@H](n2cc(NC(=O)c3coc(-c4ccnc(NCC5CC5)c4)n3)c(C(F)F)n2)CC1)C1CCN(Cc2cccc3c2n(C)c(=O)n3[C@H]2CCC(=O)NC2=O)CC1 [I-308, 2-(2-((cyclopropylmethyl)amino)pyridin-4-yl)-N-(3-(difluoromethyl)-1-((1S,4r)-4-(((1-((1-((S)-2,6-dioxopiperidin-3-yl)-3-methyl-2-oxo-2,3-dihydro-1H-benzo [d]imidazol-4-yl)methyl)piperidin-4-yl)(methyl)amino)methyl)cyclohexyl)-1H-pyrazol-4-yl)oxazole-4-carboxamide] | < 50 | < 10 | – | – | – | –
6 | O=C1CCC(N2C(=O)c3cccc(NCCc4ccc(CNC[C@H]5CC[C@H](n6cc(NC(=O)c7cnn8ccc(N9C[C@H]%10C[C@@H]9CO%10)nc78)c(C(F)F)n6)CC5)cc4)c3C2=O)C(=O)N1 (stereo partly drawn) [I-351, N-[3-(difluoromethyl)-1-[4-[[[4-[2-[[2-(2,6-dioxo-3-piperidyl)-1,3-dioxo-isoindolin-4-yl]amino]ethyl]phenyl]methylamino]methyl]cyclohexyl]pyrazol-4-yl]-5-[(1R,4R)-2-oxa-5-azabicyclo[2.2.1]heptan-5-yl]pyrazolo[1,5-a]pyrimidine-3-carboxamide] | > 1000 | > 1000 | – | – | – | –
7 | CN(CCCOCCCNc1cccc2c1C(=O)N(C1CCC(=O)NC1=O)C2=O)C[C@H]1CC[C@H](n2cc(NC(=O)c3coc(-c4ccnc(N[C@@H]5CCCC[C@@H]5O)c4)n3)c(C(F)F)n2)CC1 (stereo partly drawn) [I-399] | < 50 | 10 to 100 | < 10 | – | – | –
8 | Cn1c(=O)n(C2CCC(=O)NC2=O)c2cccc(CCCOC3CCN(C[C@H]4CC[C@H](n5cc(NC(=O)c6cnn7ccc(NCC8CC8)nc67)c(C(C)(C)O)n5)CC4)CC3)c21 (stereo partly drawn) [I-267] | – | 100 to 1000 | – | – | – | > 1000
9 | CC[C@@H]1[C@H](F)C(=O)N[C@@H]1COc1ncc(C#CC2CCN(CCOCCNc3cccc4c3C(=O)N(C3CCC(=O)NC3=O)C4=O)CC2)c2cc(C(N)=O)c(OC)cc12 (stereo partly drawn) [I-357, 4-[2-[1-[2-[2-[[2-(2,6-dioxo-3-piperidyl)-1,3-dioxo-isoindolin-4-yl]amino]ethoxy]ethyl]-4-piperidyl]ethynyl]-1-[[(2S,3S,4S)-3-ethyl-4-fluoro-5-oxo-pyrrolidin-2-yl]methoxy]-7-methoxy-isoquinoline-6-carboxamide] | > 1000 | > 1000 | – | – | – | –
10 | CN(CC1CCC(n2cc(NC(=O)c3cnn4ccc(N5C[C@H]6C[C@@H]5CO6)nc34)c(C(F)F)n2)CC1)[C@H]1C[C@H](Nc2cccc3c2C(=O)N(C2CCC(=O)NC2=O)C3=O)C1 (stereo partly drawn) [I-457] | > 1000 | – | – | 100 to 1000 | > 1000 | –
11 | C=C(C)c1nn([C@H]2CC[C@H](CN3CCC(OCCCc4cccc5c4n(C)c(=O)n5C4CCC(=O)NC4=O)CC3)CC2)cc1NC(=O)c1cnn2ccc(NCC3CC3)nc12 (stereo partly drawn) [I-172] | > 1000 | 100 to 1000 | – | – | – | –
12 | CN1C(=O)CCC(N2C(=O)c3cccc(NCCCOCCCS(=O)(=O)N(C)C(=O)[C@H]4CC[C@H](n5cc(NC(=O)c6cnn7ccc(N8C[C@H]9C[C@@H]8CO9)nc67)c(C(F)F)n5)CC4)c3C2=O)C1=O (stereo in doubt) [I-490, N-[3-(difluoromethyl)-1-[4-[methyl-[3-[3-[[2-(1-methyl-2,6-dioxo-3-piperidyl)-1,3-dioxo-isoindolin-4-yl]amino]propoxy]propylsulfonyl]carbamoyl]cyclohexyl]pyrazol-4-yl]-5-(2-oxa-5-azabicyclo [2.2.1]heptan-5-yl)pyrazolo [1,5-a]pyrimidine-3-carboxamide] | > 1000 | – | – | 100 to 1000 | > 1000 | –
13 | O=C1CCC(N2C(=O)c3ccnc(NCCCOC4CCN(Cc5ccc(-n6cc(NC(=O)c7cnn8ccc(N9CCOCC9)nc78)c(C(F)F)n6)cc5)CC4)c3C2=O)C(=O)N1 (stereo not drawn) [I-441] | > 1000 | 10 to 100 | 10 to 100 | – | – | –
14 | O=C1CCC(N2C(=O)c3cccc(NCCOCCCN4CCN(c5ncc(-n6cc(NC(=O)c7cnn8ccc(N9C[C@H]%10C[C@@H]9CO%10)nc78)c(C(F)F)n6)cn5)CC4)c3C2=O)C(=O)N1 (stereo partly drawn) [I-474] | < 50 | – | – | 100 to 1000 | 10 to 100 | –
15 | CC[C@@H]1[C@H](F)C(=O)N[C@@H]1COc1ccc(C#C[C@H]2CC[C@H](CN3CCC4(CC3)CC(CNc3cccc5c3C(=O)N(C3CCC(=O)NC3=O)C5=O)C4)CC2)c2cc(C(N)=O)c(OC)cc12 (stereo partly drawn) [I-372] | < 50 | > 1000 | – | – | – | –
16 | O=C1CCC(N2C(=O)c3cccc(NCCCOC[C@H]4CC[C@H](n5cc(NC(=O)c6cnn7ccc(N8C[C@H]9C[C@@H]8CO9)nc67)c(C(F)F)n5)CC4)c3C2=O)C(=O)N1 (stereo partly drawn) [I-375] | 500 to 1000 | > 1000 | – | – | – | –
17 | O=C1CCC(N2C(=O)c3cccc(NCC4CCN(C[C@H]5CC[C@H](n6cc(NC(=O)c7cnn8ccc(N9CCOCC9)nc78)c(C(F)F)n6)CC5)CC4)c3C2=O)C(=O)N1 (stereo partly drawn) [I-385] | < 50 | > 1000 | 10 to 100 | – | – | –
18 | CC[C@@H]1[C@H](F)C(=O)N[C@@H]1COc1ncc(C#C[C@H]2CC[C@H](CN(C)CCCOCCNc3cccc4c3C(=O)N(C3CCC(=O)NC3=O)C4=O)CC2)c2cc(C(N)=O)c(OC)cc12 (stereo partly drawn) [I-387] | < 50 | 100 to 1000 | – | – | – | –
19 | CN1C(=O)CCC(N2C(=O)c3cccc(NCCCOC4CCN(C[C@H]5CC[C@H](n6cc(NC(=O)c7cnn8ccc(N9CCOCC9)nc78)c(C(F)F)n6)CC5)CC4)c3C2=O)C1=O (stereo partly drawn) [I-368] | > 1000 | > 1000 | – | – | – | –
20 | CN1C(=O)CCC(n2c(=O)n(C)c3c(CCCOC4CCN(C[C@H]5CC[C@H](n6cc(NC(=O)c7cnn8ccc(N9CCOCC9)nc78)c(C(F)F)n6)CC5)CC4)cccc32)C1=O (stereo partly drawn) [I-195] | > 1000 | 100 to 1000 | – | – | – | –
21 | Cc1nc2cccc(NCCCOC3CCN(C[C@H]4CC[C@H](n5cc(NC(=O)c6cnn7ccc(N8CCOCC8)nc67)c(C(F)F)n5)CC4)CC3)c2c(=O)n1C1CCC(=O)NC1=O (stereo partly drawn) [I-211] | 50 to 100 | > 1000 | > 1000 | – | – | –
22 | Cn1c(=O)n(C2CCC(=O)NC2=O)c2cccc(CN3CCC4(CC3)CCN(C[C@H]3CC[C@H](n5cc(NC(=O)c6coc(-c7ccnc(NCC8CC8)c7)n6)c(C(F)F)n5)CC3)CC4)c21 (stereo partly drawn) [I-245] | < 50 | 10 to 100 | – | – | – | –
23 | CN(C[C@H]1CC[C@H](n2cc(NC(=O)c3cnn4ccc(N5CCOCC5)nc34)c(C(F)F)n2)CC1)C1CCN(Cc2cccc3c2n(C)c(=O)n3C2CCC(=O)NC2=O)CC1 (stereo partly drawn) [I-213] | > 1000 | < 10 | – | – | – | –
24 | O=C1CCC(N2C(=O)c3cccc(NCCCOC4CCN(C[C@H]5CC[C@H](n6cc(NC(=O)c7cnn8ccc(N9C[C@H]%10C[C@@H]9CO%10)nc78)c(C(F)F)n6)CC5)CC4)c3C2=O)C(=O)N1 (stereo partly drawn) [I-371] | 50 to 100 | – | 10 to 100 | – | – | –
25 | O=C1CCC(N2C(=O)c3cccc(NCCCOC4CCN(C[C@H]5CC[C@H](n6cc(NC(=O)c7cnn8ccc(N9CC%10(COC%10)C9)nc78)c(C(F)F)n6)CC5)CC4)c3C2=O)C(=O)N1 (stereo partly drawn) [I-364] | 50 to 100 | – | 10 to 100 | – | – | –
26 | CN1C(=O)C(C2CCC(=O)NC2=O)c2cccc(CCCOC3CCN(C[C@H]4CC[C@H](n5cc(NC(=O)c6cnn7ccc(N8CCC(C)(O)CC8)nc67)c(C(F)F)n5)CC4)CC3)c21 (stereo partly drawn) [I-286] | > 1000 | 10 to 100 | – | – | – | –
27 | CN(CCOCCNCc1ccc2c(c1)n(C)c(=O)n2C1CCC(=O)NC1=O)C[C@H]1CC[C@H](n2cc(NC(=O)c3coc(-c4ccnc(NCC5CC5)c4)n3)c(C(F)F)n2)CC1 (stereo partly drawn) [I-107] | > 1000 | < 10 | – | – | – | –
28 | Cn1c(=O)n(C2CCC(=O)NC2=O)c2ccc(CCCOC3CCN(C[C@H]4CC[C@H](n5cc(NC(=O)c6cnn7ccc(N[C@@H]8CCCC[C@@H]8O)nc67)c(C(F)F)n5)CC4)CC3)cc21 (stereo partly drawn) [I-280] | > 1000 | 10 to 100 | – | – | – | –
29 | Cn1c(=O)n(C2CCC(=O)NC2=O)c2ccc(CCCOCCOCCOCCOCC(=O)N3CCN([C@H]4CC[C@H](Nc5ncnn6ccc(C7CCOCC7)c56)CC4)CC3)cc21 (stereo partly drawn) [I-20] | > 1000 | > 1000 | > 1000 | – | – | –
30 | Cn1c(=O)n(C2CCC(=O)NC2=O)c2ccc(CCCOC3CCN(C[C@H]4CC[C@H](n5cc(NC(=O)c6coc(-c7ccnc(NCC8CC8)c7)n6)c(C(F)F)n5)CC4)CC3)cc21 (stereo partly drawn) [I-118] | > 1000 | < 10 | – | – | – | –
